{"source": "patent US20260207548A1", "about": "“METHODS AND COMPOSITIONS FOR THE TREATMENT OF VASCULAR ANOMALIES” (THE CHILDREN'S MEDICAL CENTER CORPORATION, priority 2022, published 2026)", "key": {"SOX18": {"molecular_target": "T1, SOX18 (Homo sapiens, UniProt P35713)", "T1 sequence (P35713 1-384)": "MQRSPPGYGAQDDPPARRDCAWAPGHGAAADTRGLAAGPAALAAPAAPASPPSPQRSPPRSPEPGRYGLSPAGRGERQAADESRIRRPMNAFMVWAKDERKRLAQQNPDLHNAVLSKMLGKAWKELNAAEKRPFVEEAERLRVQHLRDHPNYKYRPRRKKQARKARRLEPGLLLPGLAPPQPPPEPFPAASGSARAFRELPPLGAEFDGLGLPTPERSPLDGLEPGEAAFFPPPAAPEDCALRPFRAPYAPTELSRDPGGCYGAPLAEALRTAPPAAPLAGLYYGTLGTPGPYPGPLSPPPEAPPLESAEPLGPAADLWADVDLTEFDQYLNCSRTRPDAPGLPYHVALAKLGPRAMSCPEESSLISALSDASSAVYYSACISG", "details": "cited from earlier work"}, "SREBP2 [1]": {"system": "SREBP2", "test": "Western blot of SREBP2 in HemSC undergoing endothelial differentiation", "assay_type": "cell-based, human", "details": "2 hours on Day 6 of differentiation, hydrochloride", "method": "(§1) Cells were lysed in a RIPA-based lysis buffer (25 mM Tris HCl pH 7.6, 150 mM NaCl, 1% NP-40, 1% sodium deoxycholate, 0.1% SDS) with protease and phosphatase inhibitors (Cell Signaling Technology). Cell extracts were electrophoresed by sodium dodecyl sulfate-polyacrylamide gel electrophoresis (SDS-PAGE), transferred to nitrocellulose or to polyvinylidene difluoride (PDVF) and probed with SOX18 D-8 (Santa Cruz Biotechnology) or SREBP2 clone 22D5 (MilliporeSigma) and GAPDH (Cell Signaling Technology). All signals were detected by enhanced chemiluminescence. The densitometric analysis was conducted by using Fiji ImageJ software."}, "HemSC [2]": {"system": "HemSC", "details": "earlier work; cited from earlier work"}, "SREBP2 [3]": {"system": "SREBP2", "test": "SOX18 shRNA knockdown HemEC: SREBP2 Western blot and qPCR of SREBP2 target genes", "assay_type": "cell-based, human", "details": "shSOX18 HemEC", "method": "shRNA knockdown of SOX18: HemEC (n=3) were transduced with SOX18 shRNA lentivirus (TRCN0000017450, Sigma) or an empty vector control virus (Sigma) followed by puromycin (1 μg/mL) selection for 5 days. Thereafter, cells were maintained in full media without puromycin. Knockdown efficiency was confirmed by qPCR and Western Blot (FIG. 7C-7G, 8A-8B).\nas §1"}, "[4]": {"system": "Hemangioma-derived stem cells (HemSC)", "details": "earlier work; cited from earlier work"}, "[5]": {"system": "MVP genes (HMGCS1, HMGCR, MVK, ABCA1)", "test": "Mevalonate pathway (MVP) gene transcripts in differentiating HemSC, bulk RNA-seq and qPCR", "assay_type": "cell-based, human", "details": "for transcripts encoding MVP enzymes (incl. HMGCR, HMGCS1, MVK), RNA-seq: 20 μM, 2 hours, Day 6 of differentiation, hydrochloride"}, "[6]": {"system": "cholesterol biosynthesis in HUVEC", "test": "Endogenous cholesterol in cholesterol-depleted HUVEC by mass spectrometry", "assay_type": "cell-based, human", "details": "16 hours", "method": "Cell culture: HUVECs were grown in EBM-2 media (Lonza, CC-3156) and supplemented with EGM-2 bullet kit (Lonza, CC-3162). HUVECs were seeded on 0.5% gelatin-coated 6-well plates at a density of 1.5×10^5 cells/well for overnight.\nMethyl-β-cyclodextrin treatment: The day after cell seeding cells were treated with, (MBCD, Sigma #C4555) at a concentration of 2.5 mM to ensure a similar level of endogenous cholesterol among the groups. The treatment with MBCD was completely withdrawn after 4 hours by discarding the media and washed the cells with PBS. […] Cells were then washed with PBS and trypsinized. Following trypsinization cells were washed with PBS and centrifuged (FIG. 4B, 4C).\nCholesterol measurement using Targeted Mass Spectrometry: Lipids were extracted from the cell pellets through one-phase extraction with 202 μL of BuOH: MeOH (1:1) (Sigma #71-36-3 and #67-56-1) that contains […] of cholesterol-d7 (Cayman Chemical #83199-47-7) as the internal standard. The cholesterol analysis was performed on a Thermo Fisher TSQ Altis triple quadrupole mass spectrometer, operated in positive ion mode, coupled to a Vanquish UHPLC system (Thermo Fisher, Waltham, USA) using the transition from precursor mass of m/z 369.3516 (MS1) to m/z 161.1 (MS3) for cholesterol and 376.4 to 161.1 for cholesterol-d7 [REF]. […]"}, "zebrafish": {"system": "zebrafish", "details": "in vivo; cited from earlier work"}, "breast cancer model": {"system": "breast cancer model", "details": "in vivo; cited from earlier work"}, "infantile hemangioma": {"system": "infantile hemangioma", "details": "infants with IH; cited from earlier work"}, "[7]": {"system": "β1- and β2-adrenergic receptors", "details": "cited from earlier work"}, "LDL-receptor": {"system": "LDL-receptor", "test": "LDL-receptor mRNA in HemSC as indirect measure of HMGCR inhibition", "assay_type": "cell-based, human", "details": "1 μM atorvastatin, 24 hours"}, "HemSC [8]": {"system": "HemSC", "details": "atorvastatin 0.1 μM, 6 days"}, "[9]": {"system": "Hemangioma-derived stem cells (HemSC)", "test": "IH xenograft model: patient-derived HemSC in Matrigel injected subcutaneously into nude mice, human blood vessel formation", "assay_type": "in vivo", "method": "MilliporeSigma) was prepared in DMSO. […] Dako, Glostrup, 0823) to stain human ECs. Next, sections were incubated with Alexa Fluor 647 chicken anti-mouse IgG (1:200, Invitrogen, Thermo Fisher Scientific) as a secondary antibody (FIG. 9C, 9D)."}}, "note": "Entries after “also recorded” stand apart in the source; their conditions may differ.", "data": [{"smiles": "CC(C)NC[C@@H](O)COc1cccc2ccccc12.Cl", "note": "[R(+) propranolol, R(+) propranolol hydrochloride]", "values": [{"measurement": "SOX18 activity", "setting": "SOX18", "value": "inhibit"}, {"measurement": "mature 62 kDa SREBP2", "setting": "SREBP2 [1]", "value": "decreased mature 62 kDa SREBP2"}, {"measurement": "mature 62 kDa SREBP2", "setting": "SREBP2 [1]; listed as R+ propranolol", "value": "decreased levels of 62 kDa mature SREBP2"}, {"measurement": "HemSC endothelial differentiation in vitro", "setting": "HemSC [2]", "value": "inhibits"}, {"measurement": "HMGCS1 and HMGCR mRNA levels", "setting": "SREBP2 [3]", "value": "did not reduce the mRNA levels"}, {"measurement": "HemSC vasculogenesis in vivo", "setting": "[4]", "value": "inhibits"}, {"measurement": "transcripts encoding MVP enzymes (incl. HMGCR, HMGCS1, MVK), RNA-seq", "setting": "[5]", "value": "significantly reduced transcripts encoding several enzymes of the MVP"}, {"measurement": "transcripts encoding MVP enzymes (incl. HMGCR, HMGCS1, MVK), RNA-seq", "setting": "[5]; listed as R+ propranolol", "value": "inhibits eight enzymes in the mevalonate pathway"}, {"measurement": "ABCA1 mRNA, qPCR", "setting": "[5]; 2 hours or 4 days treatment", "value": "upregulated"}, {"measurement": "HMGCS1, HMGCR and MVK mRNA, qPCR", "setting": "[5]; 2 hours or 4 days treatment", "value": "Downregulation"}, {"measurement": "downregulation of MVP transcripts", "setting": "[5]; Day 4 of differentiation", "value": "not seen"}, {"measurement": "endogenous cholesterol levels", "setting": "[6]; 20 μM R+ propranolol after MBCD depletion, hydrochloride", "value": "significantly reduced; also recorded: decreased new synthesis of cholesterol"}]}, {"smiles": "CC(C)NC[C@@H](O)COc1ccc(CC(N)=O)cc1", "note": "[R(+) atenolol]", "values": [{"measurement": "SOX18 activity", "setting": "SOX18", "value": "inhibit"}]}, {"smiles": "O=C(O)c1c(O)cccc1CCc1ccc2ccccc2c1", "note": "[Sm4]", "values": [{"measurement": "vascular development", "setting": "zebrafish", "value": "suppresses vascular development in zebrafish"}, {"measurement": "tumor angio- and lymph-angiogenesis", "setting": "breast cancer model", "value": "suppresses"}, {"measurement": "endogenous cholesterol levels", "setting": "[6]; 40 μM Sm4 after MBCD depletion", "value": "significantly reduced; also recorded: decreased new synthesis of cholesterol"}]}, {"smiles": "CC(C)NCC(O)COc1cccc2ccccc12", "note": "(stereo not drawn) [propranolol]", "values": [{"measurement": "complete response rate", "setting": "infantile hemangioma", "value": 60, "unit": "%"}, {"measurement": "β1 and β2-adrenergic receptor antagonism", "setting": "[7]", "value": "non-selective antagonist"}]}, {"smiles": "CC(C)c1c(C(=O)Nc2ccccc2)c(-c2ccccc2)c(-c2ccc(F)cc2)n1CC[C@@H](O)C[C@@H](O)CC(=O)O", "note": "[atorvastatin]", "values": [{"measurement": "LDL-R mRNA", "setting": "LDL-receptor", "value": "significant upregulation of LDL-R mRNA; also recorded: increase LDL receptor mRNA"}, {"measurement": "VEGF-B induced endothelial differentiation (mRNA of CD31 and VE-Cadherin)", "setting": "HemSC [8]", "value": "significantly inhibited endothelial differentiation; also recorded: inhibited VEGF-B induced endothelial differentiation"}, {"measurement": "human CD31+ blood vessel formation from HemSC", "setting": "[9]; atorvastatin 1 mg/kg/d, 7 days", "value": "significantly blocked the formation of human blood vessels; also recorded: significantly inhibited human CD31+ blood vessel formation"}, {"measurement": "HemSC blood vessel formation in xenograft model", "setting": "[9]; overall statement, no single dose", "value": "inhibited blood vessel formation; also recorded: significantly reduced HemSC blood vessel formation in a dose-dependent manner; also recorded: inhibit IH vessel formation"}]}, {"smiles": "CC(C)NC[C@H](O)COc1cccc2ccccc12", "note": "(single isomer, unassigned) [S(−) enantiomer]", "values": [{"measurement": "β1 and β2-adrenergic receptor antagonism", "setting": "[7]", "value": "potent antagonist"}]}, {"smiles": "CCC(C)(C)C(=O)O[C@H]1C[C@@H](C)C=C2C=C[C@H](C)[C@H](CC[C@@H]3C[C@@H](O)CC(=O)O3)[C@H]21", "note": "[simvastatin]", "values": [{"measurement": "lowest dose that showed significant reduction in IH vessels", "setting": "[9]; simvastatin dose response 0.1-10 mg/kg/d", "value": 1, "unit": "mg/kg/day"}]}]}
